Experimental data from patent US11111232B2, “Substituted cyclobutylpyridine and cyclobutylpyrimidine compounds as indoleamine 2,3-dioxygenase (IDO) inhibitors” (MERCK SHARP & DOHME CORP., priority 2017, dated 2021).

How the values were obtained:
[1] = target: T1, TDO (Homo sapiens, UniProt P48775); experiment: TDO cellular assay in frozen SW48 cells; type: cell-based; conditions: 300 uM L-tryptophan, about 48 hours, fluorescence readout
T1 construct: endogenous in cells; host or cells: SW48 cells (A2780 cells as low-TDO control)
T1 sequence (P48775 whole entry): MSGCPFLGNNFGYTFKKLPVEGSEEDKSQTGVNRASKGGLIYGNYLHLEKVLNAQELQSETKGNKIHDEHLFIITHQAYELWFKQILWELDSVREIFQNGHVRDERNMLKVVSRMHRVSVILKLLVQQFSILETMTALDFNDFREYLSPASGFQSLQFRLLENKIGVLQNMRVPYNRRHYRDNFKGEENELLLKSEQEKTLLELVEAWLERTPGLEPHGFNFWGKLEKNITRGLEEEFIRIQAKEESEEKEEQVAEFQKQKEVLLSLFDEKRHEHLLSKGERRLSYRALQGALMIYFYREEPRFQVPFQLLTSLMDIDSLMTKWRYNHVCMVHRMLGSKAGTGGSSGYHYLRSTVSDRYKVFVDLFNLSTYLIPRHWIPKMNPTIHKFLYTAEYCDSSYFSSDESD

[2] = target: IDO1 (Homo sapiens, UniProt P14902); experiment: IDO1 cellular assay in Hela cells stimulated with IFNγ; type: cell-based; conditions: IFNγ 100 ng/mL, 300 uM L-tryptophan, about 48 hours, fluorescence readout
IDO1, sequence (P14902 whole entry): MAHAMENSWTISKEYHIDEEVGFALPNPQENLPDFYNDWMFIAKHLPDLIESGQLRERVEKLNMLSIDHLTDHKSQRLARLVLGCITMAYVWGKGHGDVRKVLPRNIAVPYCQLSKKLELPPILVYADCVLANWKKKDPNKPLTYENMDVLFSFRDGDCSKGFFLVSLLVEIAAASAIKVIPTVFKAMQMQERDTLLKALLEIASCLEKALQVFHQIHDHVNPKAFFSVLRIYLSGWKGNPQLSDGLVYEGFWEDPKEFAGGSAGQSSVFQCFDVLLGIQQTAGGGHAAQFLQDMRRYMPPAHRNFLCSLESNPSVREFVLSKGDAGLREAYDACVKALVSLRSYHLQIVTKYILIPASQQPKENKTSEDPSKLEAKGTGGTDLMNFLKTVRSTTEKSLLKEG

For O=C(Nc1ccc(C2(C(=O)Nc3ccc(F)cc3)CCC2)cn1)C1CCCCC1 [Example 15, N-(5-{1-[(4-fluorophenyl)carbamoyl]cyclobutyl}pyridin-2-yl) cyclohexanecarboxamide], the IC50 [1] was no less than 10 µM and the IC50 [2] was 0.01 µM.
